# Experimental data reported in patent US20100254965A1, “Adenosine Signaling in Diagnosis, Treatment, and Prevention of Priapism and Erectile Dysfunction” (BOARD OF REGENTS ,THE UNIVERSITY OF TEXAS SYSTEM, priority 2006, published 2010).
# Experiments:
# [1] = tested on: corpus cavernosal smooth muscle cells (CCSM); assay: cAMP production in primary corpus cavernosal / penile vascular smooth muscle cells (CCSM, PVSM); type: cell-based, mouse; conditions: 10 min; for adenosine-mediated cAMP induction was blocked: CCSM, MRS1706 10 μM, ZM241385 50 nM
# Description: PVSM were isolated and cultured from mouse penes. The cells were be switched to serum-free medium and treated with different concentrations of adenosine with or without A2B antagonist (MRS1706-1 μM) or A2A agonist (CGS-21680-1 μM) alone for 10 min. Then cellular extracts were collected and cAMP levels were measured using an ELISA kit. The data represent mean±SE.
# Data are presented as mean±SE. *, p<0.01.
# FIG. 18. Adenosine stimulated both cAMP and cGMP induction in corpus cavernosal smooth muscle cells (CCSM) via A2BR activation. (a) Adenosine receptor expression profile in purified primary CCSM. CCSM were purified from adult mouse penes. […] (b) CCSM were isolated and cultured from mouse penes. The cells were switched to serum-free medium and treated with different concentrations of adenosine with or without A2BR antagonist (MRS1706-10 μM), A2AR antagonist (ZM241385-50 nM) or A2AR agonist (CGS-21680-10 μM) alone for 10 min. Then cellular extracts were collected and cAMP levels were measured using an ELISA kit. The data represent mean±SE. *p<0.05, adenosine treated versus the untreated; **p<0.05, adenosine plus MRS1706 or ZM241385 versus the adenosine treated. (c) CCSM were isolated from penes of the wild type and A2BR-deficient mice and cultured with or without adenosine (100 μM), NECA (10 μM), a potent adenosine receptor agonist, forskolin (10 μM), an adenylyl cyclase agonist. After 10 min treatment, the cellular extracts were collected and cAMP levels were measured by using a commercial enzyme immunoassay kit (Amersham Pharmacia). N=4. *p<0.05, adenosine, forskolin and NECA treated versus the untreated control. (d) Corpus cavernosal strips (CCS) were isolated from wild type and A2BR-deficient mice and treated with different concentrations of adenosine in the presence or absence of L-NAME (100 μM) or MRS1706 (10 μM). 10 min after treatment, cellular extracts were collected and cGMP levels were measured by using a commercial enzyme immunoassay kit (Amersham Pharmacia). Data are expressed as mean±SE. *p<0.05, adenosine treated versus the control; **p<0.05, adenosine treated with MRS1706 versus the adenosine treated; ***p<0.05, CCS of A2BR-deficient mice treated with adenosine versus the CCS of wild type mice treated with adenosine. N=6-7. (e) CCSM were isolated from wild type and A2BR deficient mice and cultured with or without adenosine (100 μM), NECA (10 μM), a potent adenosine receptor agonist, forskolin (10 μM), an adenylyl cyclase agonist, or diethylamine-NONOate (DEA/NO) (10 μM). After 10 min treatment, the cellular extracts were collected and cAMP levels were measured by using a commercial enzyme immunoassay kit (Amersham Pharmacia). N=4. *p<0.05, DEA/NO treated versus to the untreated control. (f) Both cAMP and cGMP induction contribute to adenosine-mediated decreased PE-induced phosphorylation of myosin light chain (MLC). CCSM and CCS were isolated and cultured with the treatment of phenylephrine (PE-10 μM) in the presence or absence of adenosine (100 μM) or L-NAME (100 μM). 10 min after treatment, cellular extracts were isolated and western blot analysis were performed. The total MLC and phosphorylated MLC at S20 were detected by specific antibodies.
# Isolation of primary corpus cavernosal smooth muscle cells (CCSM). Corpus cavernosum tissues were dissected as described above. Cavernosal tissue was washed in PBS and minced into […] pieces. Segments were incubated in 5-10 ml enzyme solutions containing 0.02% collagenase A (0.272 U/mg protein, Roche, Mannheim, Germany) and 0.5% elastase (3.73 U/mg protein, Cell system, St Katharinen, Germany) in a 75 mm flask at 37° C. for 6 hours. Enzymatic digestion was terminated by adding 10 ml DMEM supplemented with 10% fetal calf serum (FCS). […]
# [2] = tested on: corpus cavernosal strips (CCS); assay: EFS-induced cGMP in CCS of ADA+ and ADA-/- mice; type: cell-based, mouse; conditions: EFS 5V 30 Hz, MRS1706 (10 nM), ZM241385 (50 nM), L-NAME (100 μM)
# Description: FIG. 19. EFS leads to increased cAMP and cGMP production via A2BR in ADA-deficient mice. (a-b) Corpus cavernosal strips (CCS) of the ADA−/− and ADA+ mice were isolated and treated with 10 μM phenylephrine (PE) to induce precontraction. Then CCS were treated with MRS1706 (10 nM), ZM241385 (50 nM) or L-NAME (100 μM) prior to electrical field stimulation (EFS) at 5V and 30 Hz. 60 second after nerve stimulation, the CCS were quickly frozen and cellular cAMP (a) and cGMP (b) were measured by using commercial enzyme immunoassay kit (Amersham Pharmacia). N=4. Data are expressed as mean±SE. *p<0.05, ADA deficient mice versus the control; **p<0.05, CCS of ADA-deficient mice with MRS1706 and/or L-NAME treatment versus CCS of ADA-deficient mice without treatment; ***p<0.05, CCS of the control mice with MRS1706 and/or L-NAME treatment versus CCS of the control mice without treatment.
# Function experiments. […] The contractility of each isolated corpus cavernosum smooth muscle cells (CCSM) strip was measured using an isometric force transducer (AD Instrument Inc., Georgia, Vt., USA). […] The contractile responses of the strips were analysed by adding 10 μM phenylephrine to the bath, and force changes were recorded in response to drug application and to electrical field stimulation. […]
SMILES,adenosine-mediated cAMP induction was blocked [1],EFS-increased levels of cGMP were inhibited [2],cAMP production ([1]; CCSM/PVSM of A2BR deficient (A2B-/-) mice),"cAMP production ([1]; CCSM/PVSM of A2BR deficient (A2B-/-) mice, listed as Adenosine)","cAMP production ([1]; wild type CCSM/PVSM, agent alone)","cAMP production ([1]; wild type CCSM/PVSM, agent alone, listed as Adenosine)"
CCCn1c(=O)c2[nH]c(-c3ccc(OCC(=O)Nc4ccc(C(C)=O)cc4)cc3)nc2n(CCC)c1=O [MRS1706],blocked,significantly inhibited,,,,
Nc1nc(NCCc2ccc(O)cc2)nc2nc(-c3ccco3)nn12 [ZM241385],not,not,,,,
Nc1ncnc2c1ncn2[C@@H]1O[C@H](CO)[C@@H](O)[C@H]1O [adenosine],,,failed to induce cAMP production,essentially no effect on cAMP levels,induced cAMP,elevate cAMP levels
